# Paper PMC8148378 (Chemical Science, 2019)
# Legend:
# [1] = system: K. pneumoniae DSM-30104; assay: MIC determination, larger panel; assay type: cell-based; conditions: Klebsiella pneumoniae, DSM30104, read-out: MIC K. pneumoniae
# [2] = system: P. mirabilis DSM-4479; assay: MIC determination, larger panel; assay type: cell-based; conditions: Proteus mirabilis, DSM4479, read-out: MIC P. mirabilis
# [3] = system: A. baumannii DSM-30008; assay: MIC determination, larger panel; assay type: cell-based; conditions: Acinetobacter baumannii, DSM30008, read-out: MIC A. baumannii, DSM-30008
# [4] = In vivo tolerance study; design: species or system male CD-1 mice
# [5] = Single dosing pharmacokinetic study; assay type: in vivo, male CD-1 outbred mice; conditions: 5 mg/kg, plasma
# [6] = system: E. coli ATCC25922; assay: Neutropenic murine thigh infection model, i.v. administration; assay type: in vivo, male ICR mice
# [7] = system: E. coli WT-3; assay: MIC determination, larger panel; assay type: cell-based; conditions: Escherichia coli, WT3, read-out: MIC E. coli WT-3
# [8] = system: E. aerogenes DSM-30053; assay: MIC determination, larger panel; assay type: cell-based, Enterobacter aerogenes; conditions: Klebsiella aerogenes, DSM30053, read-out: MIC E. aerogenes
# [9] = system: E. faecalis ATCC-29212; assay: MIC determination, larger panel; assay type: cell-based; conditions: Enterococcus faecalis, ATCC29212, read-out: MIC E. faecalis
# [10] = system: P. aeruginosa ESBL 1 DSM-24600; assay: MIC determination, larger panel; assay type: cell-based; conditions: Pseudomonas aeruginosa, DSM24600, read-out: MIC P. aeruginosa ESBL 1
# [11] = system: P. aeruginosa ESBL 2 DSM-46316; assay: MIC determination, larger panel; assay type: cell-based; conditions: Pseudomonas aeruginosa, DSM46316, read-out: MIC P. aeruginosa ESBL 2
# [12] = system: E. cloacae DSM-30054; assay: MIC determination, larger panel; assay type: cell-based; conditions: Enterobacter cloacae, DSM30054, read-out: MIC E. cloacae
# [13] = system: S. marcescens DSM-30121; assay: MIC determination, larger panel; assay type: cell-based; conditions: Serratia marcescens, DSM30121, read-out: MIC S. marcescens
# [14] = system: E. coli strain ATCC25922; assay: Neutropenic thigh infection model, s.c. and i.v. administration; assay type: in vivo, neutropenic CD-1 mice; conditions: 24 h after infection
# [15] = as above; assay type: in vivo, neutropenic CD-1 mice; conditions: male, CD-1, mouse, muscle, other: intravenous then subcutaneous
smiles,measurement,setting,value
CC(C)Oc1c(NC(=O)c2ccc(NC(=O)[C@H](CC(N)=O)NC(=O)c3ccc(NC(=O)c4ccc(C#N)cc4)cc3)cc2)ccc(C(=O)Nc2ccc(C(=O)O)cc2)c1O [Compound 22],MIC,[1],0.5 µg/mL
same,MIC,[2],> 64 µg/mL
same,MIC,[3],1 µg/mL
same,adverse effects,[4]; 5 mg kg^−1 i.v. four times every 6 hours (20 mg kg^−1 per day),no adverse effect
same,adverse effects,[4]; 10 mg kg^−1 i.v. four times every 6 hours (40 mg kg^−1 per day),no adverse effect
same,adverse effects,[4]; 20 mg kg^−1 i.v. four times every 6 hours (80 mg kg^−1 per day),one animal in the group treated at 20 mg kg^−1 showed adverse effects
same,V/F (volume of distribution),[5]; i.v.,3.5 L/kg
same,AUC,"[5]; male, CD-1, mouse, iv, area under the curve (AUC), 5 mg kg^−1, plasma",~2000 ng·h/mL
same,Log10 variation from vehicle control,[6]; 20mg/kg/day i.v.,−3.97 CFU/g
same,Log10 variation from vehicle control,[6]; 40mg/kg/day i.v.,−5.32 CFU/g
same,Log10 variation from vehicle control,[6]; 50mg/kg/day i.v.,−4.89 CFU/g
same,MIC,[7],0.25 µg/mL
same,MIC,[8],0.06 µg/mL
same,MIC,[9],0.5 µg/mL
same,MIC,[10],4 µg/mL
same,MIC,[11],4 µg/mL
same,MIC,[12],0.25 µg/mL
same,MIC,[13],> 64 µg/mL
same,reduction of the bacterial load in lung,[14],3 log units
same,bacterial load in kidney,"[14]; all dosing groups, compared to vehicle-treated animals",complete bacterial clearance
same,concentration at 24 h,[15],~100 ng/mL
